Source: patent publication US20210059977A1, “COMBINATION THERAPIES FOR THE TREATMENT OF AMYOTROPHIC LATERAL SCLEROSIS AND RELATED DISORDERS” (The General Hospital Corporation, priority 2018, published 2021)

Key:
Format in all cases: in vivo, mice
[1] = test system: SOD1^G93A mouse model; test: Paw Grip Endurance Test (PaGE); conditions: TgSOD1-Cromolyn vs TgSOD1-Vehicle
Experimental: The PaGE test was performed as previously described. Briefly, mice were placed on the wire lid of a conventional housing cage that was inverted and held at ˜45 cm above an open cage bottom. […] The largest value from three individual trials was used for analysis.
(§1) 149 male and female age- and litter-matched transgenic (Tg) SOD1^G93A and wild-type (Wt) SOD1^G93A mice were used with the following breakdown: Females (19 WtSOD1-Vehicle, 17 WtSOD1-Cromolyn, 19 TgSOD1-Vehicle, and 17 TgSOD1-Cromolyn) and Males (18 WtSOD1-Vehicle, 21 WtSOD1-Cromolyn, 21 TgSOD1-Vehicle, 17 TgSOD1-Cromolyn).

[2] = test system: SOD1^G93A mouse model; test: Gait analysis (stride length and width); conditions: 6.3 mg/kg i.p.
Experimental: Gait Analysis Manual gait analysis was performed using a limb painting procedure similar to previous studies. Briefly, mice were first trained to traverse a horizontal corridor leading directly into their home cage by gentle nudges in the appropriate direction. On test days the bottoms of their hindlimbs were painted, by brushing with non-toxic food dye (Fisher Scientific), and the mice were allowed to walk the path to their home cage on a piece of paper. Three trials were performed at each experimental time point (P70, P90, P110, P130, P150). Stride length and width was determined by measuring the distance between the same points, on the ball mount region of the footprint, in two consecutive footprints and calculated from 2-3 hindpaw strides. Mean data from 4-6 strides across three trials was calculated.
as §1

[3] = test system: SOD1^G93A mouse model; test: Age at paresis onset
Experimental: Beginning at P50, weight and neurological score (using the ALS TDI criteria) (Hatzipetros, T., et al. (2015). “A Quick Phenotypic Neurological Scoring System for Evaluating Disease Progression in the SOD1-G93A Mouse Model of ALS.” J Vis Exp(104); Leitner M., et. al. (2009). “Working with ALS mice: Guidelines for preclinical testing & colony management.” The Jackson Laboratory) were recorded for each mouse every 5 days until death or euthanasia. ALS TDI criteria are as follows: • Score of 0: Full extension of hind legs away from lateral midline when mouse is suspended by its tail, and mouse can hold this for two seconds, suspended two to three times. • Score of 1: Collapse or partial collapse of leg extension towards lateral midline (weakness) or trembling of hind legs during tail suspension. • Score of 2: Toes curl under at least twice during walking of 12 inches, or any part of foot is dragging along cage bottom/table. • Score of 3: Rigid paralysis or minimal joint movement, foot not being used for generating forward motion. • Score of 4: Mouse cannot right itself within 15 seconds after being placed on either side. *Mice were euthanized upon obtaining a score of 4.
as §1

[4] = test system: pro-inflammatory cytokines and chemokines in plasma; test: Meso Scale Discovery multi-spot cytokine assay, plasma
Experimental: Spinal cord frozen tissue was homogenized in ice-cold RIPA buffer (Thermo Fisher Scientific, #8990) supplemented with protease inhibitor cocktail (Thermo Fisher Scientific, #78430). Samples were centrifuged at 45,000 g for 30 minutes at 4° C. using an Optima TL ultracentrifuge and a TLA 120.2 rotor (Beckman Coulter). Expression levels of 10 pro-inflammatory cytokines and chemokines were assessed in the supernatants derived from spinal cord tissue or in the plasma, using an electrochemiluminescence-based multi-array method and MESO Quickplex SQ 120 system (MSD, Rockville, Md., USA). The 96-well V-PLEX Proinflammatory Mouse 1 Kit (Meso Scale Discovery, #K15048D) was used to measure simultaneously IFN-γ, IL-1β, IL-2, IL-4, IL-5, IL-6, CXCL1/KC/GRO, IL-10, IL-12, p70, and TNFα, following the manufacturer's instructions. Briefly, samples were diluted in the calibrator and added to the plate coated with an array of cytokine capture antibodies. Samples were incubated in the plate for 2 hours with shaking at room temperature, followed by washes with the wash buffer provided in the kit. The detection antibody solution was added to each well and the plate was incubated for 2 hours. The plate was washed with the wash buffer and the 2× Read Buffer T was added. The signal was immediately measured on a MESO QuickPlex SQ 120 instrument and was analyzed using the DISCOVERY WORKBENCH 4.0 software (Meso Scale Diagnostics, LLC., Rockville, Md., USA). Protein concentrations in the supernatants or the plasma samples were measured using the Pierce BCA protein assay kit (Thermo Scientific). Values in the graphs represent levels of cytokines normalized to the corresponding protein concentrations. […] Females (19 WtSOD1-Vehicle, 17 WtSOD1-Cromolyn, 19 TgSOD1-Vehicle, and 17 TgSOD1-Cromolyn) and Males (18 WtSOD1-Vehicle, 21 WtSOD1-Cromolyn, 21 TgSOD1-Vehicle, 17 TgSOD1-Cromolyn). […] The same pro-inflammatory panel from Meso Scale Discovery was used to assess the levels of cytokines and chemokines in the plasma of a subset of mice (Females: 13 WtSOD1-Vehicle, 15 WtSOD1-Cromolyn, 6 TgSOD1-Vehicle, and 6 TgSOD1-Cromolyn; and Males: 14 WtSOD1-Vehicle, 10 WtSOD1-Cromolyn, 6 TgSOD1-Vehicle, 3 TgSOD1-Cromolyn). We were able to measure 7 of the 10 pro-inflammatory cytokines in plasma which included IL-1β, IL-2, IL-5, IL-6, CXCL1, IL-10, and TNFα.

In the case of O=C(O)c1cc(=O)c2c(OCC(O)COc3cccc4oc(C(=O)O)cc(=O)c34)cccc2o1 [cromolyn, cromolyn sodium], the PaGE performance ([1]; 6.3 mg/kg i.p., all mice, P120 and P140) is reported as “significant improvement in PaGE performance”, the PaGE performance ([1]; female mice, P100) is reported as “greater deficits in PaGE performance” and the PaGE performance ([1]; female mice, P140) is reported as “significant improvement”. For the same compound, the PaGE performance ([1]; male mice, P120) was “significant improvement in PaGE”, the stride length ([2]; TgSOD1 mice) was “no effect on stride length” and the stride width ([2]; all groups, two-way ANOVA) was “no effect of treatment”. For the same compound, the “median age of onset (age at paresis onset)” value ([3]; TgSOD1-Cromolyn group, all mice, 6.3 mg/kg i.p., vehicle group 99 days) was 107 days, the “onset of motor symptoms as measured by age at paresis onset” value ([3]; all TgSOD1 mice, Mantel-Cox test, p<0.0001) was “significant effect of cromolyn treatment on the onset of motor symptoms” and the “onset of motor symptoms” value ([3]; female mice, Mantel-Cox test, p=0.0009) was “significant delay in the onset of motor symptoms”. For the same compound, the “onset of motor symptoms” value ([3]; male mice, Mantel-Cox test, p=0.0193) was “significant delay in the onset of motor symptoms”, the “IL-10 levels in plasma” value ([4]; TgSOD1-Cromolyn vs TgSOD1-Vehicle, p=0.0095) was “significantly decreased” and the “IL-2 levels in plasma” value ([4]; TgSOD1-Cromolyn vs TgSOD1-Vehicle, p=0.0211) was “significantly decreased”. For the same compound, the “IL-6 levels in plasma” value ([4]; TgSOD1-Cromolyn vs TgSOD1-Vehicle, p=0.0273) was “significantly decreased”, the “TNFα levels in plasma” value ([4]; TgSOD1-Cromolyn vs TgSOD1-Vehicle, p=0.110) was “trend towards a decrease” and the “IL-1β levels in plasma” value ([4]; between groups) was “no statistically significant difference”. For the same compound, the “IL-5 levels in plasma” value ([4]; between groups) was “no statistically significant difference”.
